From patent US20070248599A1 (priority 2006, published 2007) come the findings set out here.

Assay [1] deals with N2a-APPsw cells. Kind of assay: Cellular Aβ production in N2a-APPsw cells (Aβ40 ELISA of conditioned medium). It counts as cell-based, mouse. As to conditions: each at 5 μg/mL, 24 h, N2a-APPsw cells (FIG. 5B legend).
Assay [2] deals with N2a-APPsw cells. The description is as above. It counts as cell-based, mouse. As to conditions: recombinant ApoE forms at 10 μg/ml, N2a-APPsw cells (FIG. 5B). Here is the method: Quantification of β-Amyloid40, Neuro-2a cell stably overexpressing APPsw695 was used for detecting of β-Amyloid40. N2a-APPsw cells were grown in Dulbecco's Modified Eagle's medium (DMED) containing 10% fetal bovine serum, 100 U/mL penicillin, and 100 μg/mL streptomycin (GibcoBUR) with 80 μg/mL G418. Cells were cultured in 24-well plates one day before treatment. Transient transfections were done using FeGENE6 (Roche), fresh Optimum medium (Invitrogen) were supplied 5 h after transfection. Same concentration purified Apolipoprotein was added into the fresh medium. Conditioned medium was collected 24 h later. Aβ40 was quantified with sandwich ELISA by using Aβ40 ELISA Kit (Biosource). At least three times assays were done for each condition.
Cellular Aβ40 production. Neuroblastoma N2a-APPsw cells (from Dr. Riqiang Yan, Lerner Research Institute, Cleveland, Ohio) were cultured in 24-well plates in Dulbecco's Modified Eagle's medium (DMED) containing 10% fetal bovine serum, 100 U/mL penicillin, and 100 μg/mL streptomycin (GibcoBUR) with 80 μg/mL G418 one day before use. Transient transfections were done using FeGENE6 (Roche), fresh Optimum medium (Invitrogen) were supplied 5 h after transfection. Apolipoproteins were added in the fresh medium at 10 μg/mL. Conditioned medium was collected 24 h later. Aβ40 was determined in tripcates using Aβ40 ELISA Kit (Biosource). For studying the effect of PTB domain on Aβ production, N2a-APPsw cells were transfected with (0.4 μg/per well for 24 well plate) of PTB-containing vector before subjected to the above procedure.

Assay [3] has as its target T1, human LRP (LDL receptor related protein) (human, UniProt Q07954 20-4544).
T1 construct: whole, on cells; Expressed in HEK293 cells in place of ApoER2 and assayed in lysate
Kind of assay: co-IP from HEK293 lysate, Western blot. Here is the method: KPI is a Kunitz protease inhibitor domain. In ApoER2, the alternative spliced 59-residue insertion is shown in blue. […] Experimental conditions same as in FIG. 7A.
Co-immunoprecipitation and Western Blot Assays. […] 36 h after transfection, cells were harvested and lysed on ice in lysis buffer (PBS, pH 7.4 with 1% NP-40 and 1% Saponin with protease inhibitors cocktail (Roche)). Cell lysates were cleared by centrifugation and immunoprecipitated with indicated antibody for 4 h at 4° C. Immune complexes were isolated using protein G-agarose beads (Sigma) and subjected to SDS-PAGE and Western blotting using specific antibodies.
In general terms: A western blot detects proteins with antibodies after separation by electrophoresis.

T1 sequence (Q07954 20-4544): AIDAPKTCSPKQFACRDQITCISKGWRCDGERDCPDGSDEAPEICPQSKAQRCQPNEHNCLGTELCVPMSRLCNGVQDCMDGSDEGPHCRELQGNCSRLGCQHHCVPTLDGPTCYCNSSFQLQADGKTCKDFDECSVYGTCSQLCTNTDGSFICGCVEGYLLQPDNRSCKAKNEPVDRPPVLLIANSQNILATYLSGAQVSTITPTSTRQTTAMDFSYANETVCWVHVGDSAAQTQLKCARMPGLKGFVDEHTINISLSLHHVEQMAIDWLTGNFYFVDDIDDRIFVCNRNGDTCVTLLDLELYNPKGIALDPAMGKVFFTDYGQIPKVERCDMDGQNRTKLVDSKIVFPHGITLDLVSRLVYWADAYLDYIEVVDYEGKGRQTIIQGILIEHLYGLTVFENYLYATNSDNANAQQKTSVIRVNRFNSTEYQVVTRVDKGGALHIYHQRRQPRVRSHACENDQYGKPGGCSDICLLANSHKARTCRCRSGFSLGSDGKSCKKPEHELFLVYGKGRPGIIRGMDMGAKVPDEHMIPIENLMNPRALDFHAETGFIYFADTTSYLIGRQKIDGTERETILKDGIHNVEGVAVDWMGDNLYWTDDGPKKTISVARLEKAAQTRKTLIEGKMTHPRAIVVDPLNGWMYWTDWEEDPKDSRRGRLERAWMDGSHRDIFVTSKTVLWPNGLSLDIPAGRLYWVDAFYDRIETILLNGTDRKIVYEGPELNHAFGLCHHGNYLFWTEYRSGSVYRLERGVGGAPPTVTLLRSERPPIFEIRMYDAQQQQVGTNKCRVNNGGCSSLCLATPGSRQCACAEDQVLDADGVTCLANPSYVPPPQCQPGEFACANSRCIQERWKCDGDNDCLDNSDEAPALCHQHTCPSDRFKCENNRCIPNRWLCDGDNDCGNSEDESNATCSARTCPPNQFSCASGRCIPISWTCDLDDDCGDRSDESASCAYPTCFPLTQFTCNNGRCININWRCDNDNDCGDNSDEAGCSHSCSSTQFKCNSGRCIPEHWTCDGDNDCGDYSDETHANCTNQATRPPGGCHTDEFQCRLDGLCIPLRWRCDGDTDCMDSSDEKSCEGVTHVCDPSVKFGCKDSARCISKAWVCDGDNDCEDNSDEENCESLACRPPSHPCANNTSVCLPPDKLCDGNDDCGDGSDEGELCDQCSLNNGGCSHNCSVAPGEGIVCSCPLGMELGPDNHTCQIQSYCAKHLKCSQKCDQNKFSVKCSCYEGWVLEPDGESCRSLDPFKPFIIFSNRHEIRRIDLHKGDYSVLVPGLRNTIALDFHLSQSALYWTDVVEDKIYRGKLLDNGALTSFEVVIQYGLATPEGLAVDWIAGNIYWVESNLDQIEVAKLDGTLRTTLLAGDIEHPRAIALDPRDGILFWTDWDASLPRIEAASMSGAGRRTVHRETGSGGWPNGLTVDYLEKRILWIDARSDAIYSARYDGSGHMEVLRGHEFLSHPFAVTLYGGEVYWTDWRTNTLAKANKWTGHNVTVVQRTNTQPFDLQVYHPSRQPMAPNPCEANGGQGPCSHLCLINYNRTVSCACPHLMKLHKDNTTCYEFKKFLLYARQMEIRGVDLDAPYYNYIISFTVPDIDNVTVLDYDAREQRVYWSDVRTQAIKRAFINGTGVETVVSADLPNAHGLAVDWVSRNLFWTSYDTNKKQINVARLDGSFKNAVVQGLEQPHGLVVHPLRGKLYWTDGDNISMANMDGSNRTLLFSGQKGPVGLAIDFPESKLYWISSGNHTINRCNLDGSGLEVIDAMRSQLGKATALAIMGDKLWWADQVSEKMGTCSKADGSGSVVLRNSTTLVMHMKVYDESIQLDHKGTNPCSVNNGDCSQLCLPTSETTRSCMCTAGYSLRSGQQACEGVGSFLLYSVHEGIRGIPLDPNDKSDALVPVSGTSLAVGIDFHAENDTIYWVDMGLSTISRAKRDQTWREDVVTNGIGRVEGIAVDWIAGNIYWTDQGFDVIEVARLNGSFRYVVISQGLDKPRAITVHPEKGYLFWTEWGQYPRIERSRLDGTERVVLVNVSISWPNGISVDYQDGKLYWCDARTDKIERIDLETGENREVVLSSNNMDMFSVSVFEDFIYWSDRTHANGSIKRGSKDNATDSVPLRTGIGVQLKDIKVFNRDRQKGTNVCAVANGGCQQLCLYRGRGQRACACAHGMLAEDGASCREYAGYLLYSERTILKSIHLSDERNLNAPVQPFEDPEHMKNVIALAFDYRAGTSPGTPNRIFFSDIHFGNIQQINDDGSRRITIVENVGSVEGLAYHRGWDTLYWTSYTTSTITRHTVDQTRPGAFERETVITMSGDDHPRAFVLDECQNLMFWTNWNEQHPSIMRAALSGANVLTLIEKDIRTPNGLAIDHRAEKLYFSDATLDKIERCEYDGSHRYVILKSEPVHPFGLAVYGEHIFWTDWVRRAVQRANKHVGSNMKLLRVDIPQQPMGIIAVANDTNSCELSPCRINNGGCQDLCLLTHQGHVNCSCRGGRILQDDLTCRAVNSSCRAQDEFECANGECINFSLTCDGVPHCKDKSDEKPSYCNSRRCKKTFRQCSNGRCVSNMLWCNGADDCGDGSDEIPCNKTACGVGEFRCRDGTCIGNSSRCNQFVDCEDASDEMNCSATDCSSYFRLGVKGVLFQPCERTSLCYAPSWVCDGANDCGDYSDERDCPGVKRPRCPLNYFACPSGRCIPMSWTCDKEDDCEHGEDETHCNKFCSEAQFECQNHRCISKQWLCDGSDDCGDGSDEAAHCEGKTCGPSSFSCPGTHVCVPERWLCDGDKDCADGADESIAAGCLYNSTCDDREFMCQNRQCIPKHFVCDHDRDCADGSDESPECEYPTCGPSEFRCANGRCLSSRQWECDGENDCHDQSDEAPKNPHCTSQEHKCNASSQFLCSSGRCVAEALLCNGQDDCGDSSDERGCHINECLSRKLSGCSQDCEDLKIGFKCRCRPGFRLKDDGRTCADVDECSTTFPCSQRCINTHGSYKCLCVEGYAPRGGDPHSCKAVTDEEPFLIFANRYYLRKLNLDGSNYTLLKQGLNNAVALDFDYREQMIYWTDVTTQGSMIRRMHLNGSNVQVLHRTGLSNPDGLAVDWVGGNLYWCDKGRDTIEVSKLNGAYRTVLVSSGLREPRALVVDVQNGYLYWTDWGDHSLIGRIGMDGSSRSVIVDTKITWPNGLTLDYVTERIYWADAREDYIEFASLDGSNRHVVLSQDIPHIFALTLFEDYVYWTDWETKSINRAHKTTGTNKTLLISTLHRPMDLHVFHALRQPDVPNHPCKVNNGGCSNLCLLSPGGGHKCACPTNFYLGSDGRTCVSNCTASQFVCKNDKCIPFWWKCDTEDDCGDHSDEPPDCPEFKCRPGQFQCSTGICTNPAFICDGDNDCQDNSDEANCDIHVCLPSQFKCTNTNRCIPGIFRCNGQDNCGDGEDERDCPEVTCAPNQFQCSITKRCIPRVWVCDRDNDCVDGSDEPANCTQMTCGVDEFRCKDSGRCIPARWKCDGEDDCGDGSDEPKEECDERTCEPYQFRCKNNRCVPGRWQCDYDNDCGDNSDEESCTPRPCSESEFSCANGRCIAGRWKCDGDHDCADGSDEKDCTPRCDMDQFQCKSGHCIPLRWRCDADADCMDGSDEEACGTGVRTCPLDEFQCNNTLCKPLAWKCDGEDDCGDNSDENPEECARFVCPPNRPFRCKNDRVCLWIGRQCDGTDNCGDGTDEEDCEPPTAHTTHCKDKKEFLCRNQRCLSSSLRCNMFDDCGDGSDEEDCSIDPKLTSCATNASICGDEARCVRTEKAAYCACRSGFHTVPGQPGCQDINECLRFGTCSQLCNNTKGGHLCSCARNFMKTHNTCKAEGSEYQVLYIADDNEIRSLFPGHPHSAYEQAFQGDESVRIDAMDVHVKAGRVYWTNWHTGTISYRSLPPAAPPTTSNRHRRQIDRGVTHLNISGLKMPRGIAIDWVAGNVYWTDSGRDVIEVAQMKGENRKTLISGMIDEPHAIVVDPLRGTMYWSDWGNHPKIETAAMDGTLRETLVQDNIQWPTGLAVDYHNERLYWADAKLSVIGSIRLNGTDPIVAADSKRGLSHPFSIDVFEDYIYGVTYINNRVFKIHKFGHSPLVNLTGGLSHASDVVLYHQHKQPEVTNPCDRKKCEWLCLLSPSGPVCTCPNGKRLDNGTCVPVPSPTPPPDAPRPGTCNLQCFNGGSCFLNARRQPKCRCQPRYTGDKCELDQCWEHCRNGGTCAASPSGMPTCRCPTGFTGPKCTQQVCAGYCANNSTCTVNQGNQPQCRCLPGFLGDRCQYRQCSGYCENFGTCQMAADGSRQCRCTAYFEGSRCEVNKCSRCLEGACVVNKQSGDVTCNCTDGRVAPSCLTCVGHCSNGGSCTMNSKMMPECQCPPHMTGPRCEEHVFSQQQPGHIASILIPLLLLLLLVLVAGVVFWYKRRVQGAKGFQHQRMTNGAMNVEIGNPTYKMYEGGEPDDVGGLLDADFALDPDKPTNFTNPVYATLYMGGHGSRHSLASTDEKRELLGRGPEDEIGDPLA

In the case of “ApoE2: recombinant ApoE isoform with cysteine at residue 158, from Alpha Diagnostic”, the Aβ production result in the assay on N2a-APPsw cells [1] and in the assay on N2a-APPsw cells [2] was “increased Aβ production” throughout. For the molecule “ApoE3: recombinant ApoE isoform, the reference sequence, from Alpha Diagnostic”, the Aβ production entry with N2a-APPsw cells [1] and in the assay with N2a-APPsw cells [2] was “increased Aβ production” in each case.

B1: human X11α (other)
chain: MNHLEGSAEVEVTDEAAGGEVNESVEADLEHPEVEEEQQQPPQQQHYVGRHQRGRALEDLRAQLGQEEEERGECLARSASTESGFHNHTDTAEGDVIAAARDGYDAERAQDPEDESAYAVQYRPEAEEYTEQAEAEHAEATHRRALPNHLHFHSLEHEEAMNAAYSGYVYTHRLFHRGEDEPYSEPYADYGGLQEHVYEEIGDAPELDARDGLRLYEQERDEAAAYRQEALGARLHHYDERSDGESDSPEKEAEFAPYPRMDSYEQEEDIDQIVAEVKQSMSSQSLDKAAEDMPEAEQDLERPPTPAGGRPDSPGLQAPAGQQRAVGPAGGGEAGQRYSKEKRDAISLAIKDIKEAIEEVKTRTIRSPYTPDEPKEPIWVMRQDISPTRDCDDQRPMDGDSPSPGSSSPLGAESSSTSLHPSDPVEASTNKESRKSLASFPTYVEVPGPCDPEDLIDGIIFAANYLGSTQLLSDKTPSKNVRMMQAQEAVSRIKMAQKLAKSRKKAPEGESQPMTEVDLFISTQRIKVLNADTQETMMDHPLRTISYIADIGNIVVLMARRRMPRSNSQENVEASHPSQDGKRQYKMICHVFESEDAQLIAQSIGQAFSVAYQEFLRANGINPEDLSQKEYSDLLNTQDMYNDDLIHFSKSENCKDVFIEKQKGEILGVVIVESGWGSILPTVIIANMMHGGPAEKSGKLNIGDQIMSINGTSLVGLPLSTCQSIIKGLKNQSRVKLNIVRCPPVTTVLIRRPDLRYQLGFSVQNGIICSLMRGGIAERGGVRVGHRIIEINGQSVVATPHEKIVHILSNAVGEIHMKTMPAAMYRLLTAQEQPVYI
notes: Adaptor protein expressed from a cDNA vector in HEK293 cells and assayed in lysate; the vector came from an outside laboratory; also called X11α/β
Consider B1, for which the binding result in assay [3] was “no binding”.

B2: PTB domain of X11α (residue 457-751) expressed from pcDNA6 (other)
chain: DGIIFAANYLGSTQLLSDKTPSKNVRMMQAQEAVSRIKMAQKLAKSRKKAPEGESQPMTEVDLFISTQRIKVLNADTQETMMDHPLRTISYIADIGNIVVLMARRRMPRSNSQENVEASHPSQDGKRQYKMICHVFESEDAQLIAQSIGQAFSVAYQEFLRANGINPEDLSQKEYSDLLNTQDMYNDDLIHFSKSENCKDVFIEKQKGEILGVVIVESGWGSILPTVIIANMMHGGPAEKSGKLNIGDQIMSINGTSLVGLPLSTCQSIIKGLKNQSRVKLNIVRCPPVTTVLIR
notes: Expressed in cells from pcDNA6; also called separately expressed PTB domain of X11α
On to B2, for which the binding result in assay [3] is listed as “no binding”.
